Laboratory results reported in BindingDB's records for doi:10.1021/jm0104567 (Takeda Chemical Industries, 2002).
Counter-ions that a name gives are not always drawn.

Assay: In vitro inhibition of acid induced swelling in rat platelets by 50% as a measure of NHE-1 inhibition

Row | Structure (SMILES) | IC50 [nM]
1 | Cc1cccc2oc(-c3ccccc3Cl)cc(=NN=C(N)N)c12 [N-[2-(2-chlorophenyl)-5-methyl-4H-4-chromenylidenmethyl]iminomethanediamine. dihydrochloride] | 360
2 | Cc1ccnc2c1C(=NN=C(N)N)CC(c1ccccc1)C2 (stereo not drawn) [N-(4-methyl-7-phenyl-5,6,7,8-tetrahydro-5-quinolinyliden(imine))iminomethanediamine. dihydrochloride] | 91
3 | COc1cccc(C=NNC(=N)N)c1OCc1ccccc1 [N-[2-(2-benzyloxy-3-methoxyphenyl)-(E)-1-meth(imine)]iminomethanediamine] | 2300
4 | Cc1ccc(F)cc1[C@H]1CC(=NN=C(N)N)c2c(C)ccnc2C1 [(S)-N-[7-(5-fluoro-2-methylphenyl)-4-methyl-(7S)-5,6,7,8-tetrahydro-5-quinolinyliden(imine)]iminomethanediamine 2CH3SO3H] | 14
5 | Cc1ccnc2c1C(=NN=C(N)N)C[C@@H](c1cc(Cl)sc1Cl)C2 [(R)-N-[7-(2,5-dichloro-3-thienyl)-4-methyl-(7R)-5,6,7,8-tetrahydro-5-quinolinyliden(imine)]iminomethanediamine 2CH3SO3H] | 33
6 | Cc1ccc2c(n1)CC(c1ccccc1)CC2=NN=C(N)N (stereo not drawn) [N-(2-methyl-7-phenyl-5,6,7,8-tetrahydro-5-quinolinyliden(imine))iminomethanediamine. dihydrochloride] | 2800
7 | Cc1ccnc2c1C(=NN=C(N)N)C[C@H](c1cc(Cl)sc1Cl)C2 [(S)-N-[7-(2,5-dichloro-3-thienyl)-4-methyl-(7S)-5,6,7,8-tetrahydro-5-quinolinyliden(imine)]iminomethanediamine 2CH3SO3H] | 17
8 | CC(C)c1ccc(C(=O)NC(=N)N)cc1S(C)(=O)=O | 75
9 | Cc1cccc2c1C(=NN=C(N)N)CC(c1ccccc1Cl)O2 (stereo not drawn) [N-[2-(2-chlorophenyl)-5-methyl-3,4-dihydro-2H-4-chromenyliden(imine)]iminomethanediamine. hydrochloride] | 200
10 | Cc1cc(C)c2c(n1)CC(c1ccccc1)CC2=NN=C(N)N (stereo not drawn) [N-(2,4-dimethyl-7-phenyl-5,6,7,8-tetrahydro-5-quinolinyliden(imine))iminomethanediamine. dihydrochloride] | 180
11 | Cc1ccccc1C1CC(=NN=C(N)N)c2c(C)c[nH]c2C1 (stereo not drawn) [N-[3-methyl-6-(2-methylphenyl)-4,5,6,7-tetrahydro-1H-4-indolyliden(imine)]iminomethanediamine. dihydrochloride] | 34
12 | NC(N)=NN=c1cc(-c2ccccc2)oc2ccccc12 [N-(2-phenyl-4H-4-chromenyliden(imine))iminomethanediamine. hydrochloride] | 6400
13 | NC(N)=NN=C1CC(c2ccccc2)Cc2[nH]ccc21 (stereo not drawn) [N-(6-phenyl-4,5,6,7-tetrahydro-1H-4-indolyliden(imine))iminomethanediamine. dihydrochloride] | 3500
14 | NC(N)=NN=C1CC(c2ccccc2)Cc2ncccc21 (stereo not drawn) [N-(7-phenyl-5,6,7,8-tetrahydro-5-quinolinyliden(imine))iminomethanediamine. dihydrochloride] | 410
15 | NC(N)=NN=C1CC(c2ccccc2)Oc2ccccc21 (stereo not drawn) [N-(2-phenyl-3,4-dihydro-2H-4-chromenyliden(imine))iminomethanediamine. hydrochloride] | 3300

Continued, values first:

Row | IC50 [nM] | Structure (SMILES)
16 | 700 | Cc1ccnc2c1C(=NN=C(N)N)C[C@@H](c1ccccc1Cl)C2 [N-[7-(2-chlorophenyl)-4-methyl-(7S)-5,6,7,8-tetrahydro-5-quinolinyliden(imine)]iminomethanediamine 2CH3SO3H]
17 | 58 | Cc1ccnc2c1C(=NN=C(N)N)CC(c1cc(Cl)ccc1Cl)C2 (stereo not drawn) [N-[7-(2,5-dichlorophenyl)-4-methyl-5,6,7,8-tetrahydro-5-quinolinyliden(imine)]iminomethanediamine. dihydrochloride]
18 | 61 | Cc1ccnc2c1C(=NN=C(N)N)CC(c1cccc(Cl)c1)C2 (stereo not drawn) [N-[7-(3-chlorophenyl)-4-methyl-5,6,7,8-tetrahydro-5-quinolinyliden(imine)]iminomethanediamine. dihydrochloride]
19 | 57 | Cc1ccccc1C1CC(=NN=C(N)N)c2c(C)ccnc2C1 (stereo not drawn) [N-[4-methyl-7-(2-methylphenyl)-5,6,7,8-tetrahydro-5-quinolinyliden(imine)]iminomethanediamine. dihydrochloride]
20 | 240 | Cc1ncnc2c1C(=NN=C(N)N)CC(c1ccccc1Cl)C2 (stereo not drawn) [N-[7-(2-chlorophenyl)-4-methyl-5,6,7,8-tetrahydro-5-quinazolinyliden(imine)]iminomethanediamine. dihydrochloride]
21 | 110 | Cc1ccnc2c1C(=NN=C(N)N)CC(c1ccco1)C2 (stereo not drawn) [N-[7-(2-furyl)-4-methyl-5,6,7,8-tetrahydro-5-quinolinyliden(imine)]iminomethanediamine. dihydrochloride]
22 | 100 | COc1ccccc1C1CC(=NN=C(N)N)c2c(C)ccnc2C1 (stereo not drawn) [N-[7-(2-methoxyphenyl)-4-methyl-5,6,7,8-tetrahydro-5-quinolinyliden(imine)]iminomethanediamine. dihydrochloride]
23 | 50 | COc1ccnc2c1C(=NN=C(N)N)CC(c1ccccc1Cl)C2 (stereo not drawn) [N-[7-(2-chlorophenyl)-4-methoxy-5,6,7,8-tetrahydro-5-quinolinyliden(imine)]iminomethanediamine. 2CH3SO3H]
24 | 550 | Cc1ccnc2c1C(=NN=C(N)N)CC(c1ccc(Cl)cc1)C2 (stereo not drawn) [N-[7-(4-chlorophenyl)-4-methyl-5,6,7,8-tetrahydro-5-quinolinyliden(imine)]iminomethanediamine. dihydrochloride]
25 | 40 | Cc1ccnc2c1C(=NN=C(N)N)CC(c1ccccc1Cl)C2 (stereo not drawn) [N-[7-(2-chlorophenyl)-4-methyl-5,6,7,8-tetrahydro-5-quinolinyliden(imine)]iminomethanediamine. dihydrochloride]
26 | 37 | Cc1ccc(F)cc1C1CC(=NN=C(N)N)c2c(C)ccnc2C1 (stereo not drawn) [N-[7-(5-fluoro-2-methylphenyl)-4-methyl-5,6,7,8-tetrahydro-5-quinolinyliden(imine)]iminomethanediamine. dihydrochloride]
27 | 39 | Cc1ccnc2c1C(=NN=C(N)N)CC(c1cc(F)ccc1F)C2 (stereo not drawn) [N-[7-(2,5-difluorophenyl)-4-methyl-5,6,7,8-tetrahydro-5-quinolinyliden(imine)]iminomethanediamine. dihydrochloride]
28 | 340 | Cc1ccnc2c1C(=NN=C(N)N)CC(c1ccc(Cl)cc1Cl)C2 (stereo not drawn) [N-[7-(2,4-dichlorophenyl)-4-methyl-5,6,7,8-tetrahydro-5-quinolinyliden(imine)]iminomethanediamine. dihydrochloride]
29 | 82 | Cc1coc2c1C(=NN=C(N)N)CC(c1ccccc1Cl)C2 (stereo not drawn) [N-[6-(2-chlorophenyl)-3-methyl-4,5,6,7-tetrahydrobenzo[b]furan-4-yliden(imine)]iminomethanediamine. hydrochloride]
30 | 26 | Cc1cnnc2c1C(=NN=C(N)N)CC(c1ccccc1Cl)C2 (stereo not drawn) [N-[7-(2-chlorophenyl)-4-methyl-5,6,7,8-tetrahydro-5-cinnolinyliden(imine)]iminomethanediamine. dihydrochloride]
31 | 56 | Cc1ccnc2c1C(=NN=C(N)N)CC(c1ccccc1Br)C2 (stereo not drawn) [N-[7-(2-bromophenyl)-4-methyl-5,6,7,8-tetrahydro-5-quinolinyliden(imine)]iminomethanediamine. dihydrochloride]
32 | 47 | Cc1ccnc2c1C(=NN=C(N)N)CC(c1cccs1)C2 (stereo not drawn) [N-[4-methyl-7-(2-thienyl)-5,6,7,8-tetrahydro-5-quinolinyliden(imine)]iminomethanediamine. dihydrochloride]
33 | 49 | Cc1ccnc2c1C(=NN=C(N)N)CC(c1sc(Cl)cc1Cl)C2 (stereo not drawn) [N-[7-(3,5-dichloro-2-thienyl)-4-methyl-5,6,7,8-tetrahydro-5-quinolinyliden(imine)]iminomethanediamine. dihydrochloride]
34 | 30 | Cc1ccnc2c1C(=NN=C(N)N)CC(c1ccsc1)C2 (stereo not drawn) [N-[4-methyl-7-(3-thienyl)-5,6,7,8-tetrahydro-5-quinolinyliden(imine)]iminomethanediamine. dihydrochloride]
35 | 55 | Cc1n[nH]c2c1C(=NN=C(N)N)CC(c1ccccc1Cl)C2 (stereo not drawn) [N-[6-(2-chlorophenyl)-3-methyl-4,5,6,7-tetrahydro-1H-4-indazolyliden(imine)]iminomethanediamine. dihydrochloride]
36 | 89 | Cc1ccnc2c1C(=NN=C(N)N)CC(c1cccc(Cl)c1Cl)C2 (stereo not drawn) [N-[7-(2,3-dichlorophenyl)-4-methyl-5,6,7,8-tetrahydro-5-quinolinyliden(imine)]iminomethanediamine. dihydrochloride]
37 | 22 | Cc1ccnc2c1C(=NN=C(N)N)CC(c1ccsc1Cl)C2 (stereo not drawn) [N-[7-(2-chloro-3-thienyl)-4-methyl-5,6,7,8-tetrahydro-5-quinolinyliden(imine)]iminomethanediamine. dihydrochloride]
38 | 20 | Cc1ccnc2c1C(=NN=C(N)N)C[C@H](c1ccccc1Cl)C2 [N-[7-(2-chlorophenyl)-4-methyl-(7S)-5,6,7,8-tetrahydro-5-quinolinyliden(imine)]iminomethanediamine 2CH3SO3H]
